# From PubChem BioAssay AID1963861 (Molecular Pharmacology Branch, DTP, NCI, 2024)
# Several values for one entry are separate records, joined by “and”; a condition that tells them apart may be missing. Equal values may be shown once.
# Test system: 885724-159-R-J1-PDC KRAS PDC multicell spheroid viability
# Test: Anticancer human tumor 885724-159-R-J1-PDC patient-derived pancreatic adenocarcinoma cell line growth inhibition [KRAS2]
# Conditions: for viability, T/C: stronger effect = lower value
# Text: Multicellular complex tumor spheroid response to RAS pathway inhibitors in combination with a targeted agents in patient-derived cell lines with oncogenic KRAS variants from multiple cancer types
# A high-throughput screen of multi-cell type tumor spheroids was designed to identify active combinations of targeted small molecules and KRAS pathway inhibitors. Complex spheroids include a stromal component modeled by human endothelial cells (HUVEC) and fibroblasts modeled by human mesenchymal stem cells (MSCs). The concentration ranges selected for each drug and investigational agent were based upon clinically achievable concentrations if the clinical Cmax of the agent was known.
# Compounds. The drugs and investigational agents: BI-3406 (NSC825286), BAY-293 (NSC824723), batoprotafib (TNO155; NSC825523), sotorasib (AMG 510; NSC818433), MRTX1257 (NSC819558), elimusertib (BAY 1895344; NSC800525), molibresib (GSK525762; NSC774829), temuterkib (LY3214996; NSC803410), venetoclax (NSC766270), alisertib (NSC759677), olaparib (NSC753686), talazoparib (NSC767125), erdafitinib (NSC781556), ipatasertib (NSC767898), cabozantinib (NSC761068), nintedanib (NSC756659), abemaciclib (NSC768073), docetaxel (NSC628503), trametinib (NSC758246), and sapanisertib (NSC764658) were obtained from the National Cancer Institute (NCI) Developmental Therapeutics Program Chemical Repository. The FDA-approved anticancer drug set is available from the Developmental Therapeutics Program. […] The stock solutions were prepared in dimethyl sulfoxide (DMSO, Sigma-Aldrich, St. Louis, MO, cat. D2650) at 800-fold the tested concentration and stored at -70 degrees C prior to their use. All drugs and investigational agents were tested over a range starting from a high concentration at or near the clinical Cmax and decreasing in half-log increments. If the clinical Cmax for an agent had not been determined, the highest concentration tested was 10 microM.
# Cell Culture. All cells were maintained in an incubator at 37 degrees C and 5% CO2 with 95% humidity. The PDC lines were cultured according to standard operating procedures established by the NCI PDMR (https://pdmr.cancer.gov/sops/default.htm). Briefly, all PDCs were thawed and cultured in Matrigel-coated flasks prepared with a working solution of 1X Ham's F-12 nutrient mix, without supplementation (Invitrogen, Waltham, MA, cat. 11765054), 100 U/mL penicillin-streptomycin (Invitrogen, cat. 15140122), and 2.5% Matrigel (Corning Inc., Corning, NY, cat. 354248) for the first three passages. All PDCs were cultured in complete DMEM/F-12 media containing advanced DMEM/F-12 (Invitrogen, cat. 12634028), 4.9% defined fetal bovine serum, heat inactivated (HyClone Laboratories Inc., Logan, UT, cat. SH30070.03HI), 389 ng/mL hydrocortisone (Sigma-Aldrich, cat. H4001), 9.7 ng/mL human EGF recombinant protein (Invitrogen, cat. PHG0313), 23.4 microg/mL adenine (Sigma-Aldrich, cat. A2786), 97.3 U/mL penicillin-streptomycin (Invitrogen, cat. 15140122), 1.9 mM L-glutamine (Invitrogen, cat. 25030081), and 9.7 microM Y-27632 dihydrochloride (Tocris Bioscience, Bristol, United Kingdom, cat. 1254). The PDCs were cultured in complete DMEM/F12 media without 9.7 microM Y-27632 dihydrochloride for at least two passages prior to the screen. The established cell line HOP-62 was cultured in RPMI 1640 medium, HEPES (Invitrogen, cat. 22400105) with 10% defined fetal bovine serum (HyClone Laboratories Inc., cat. SH30070.03) and 2 mM L-glutamine (Invitrogen, cat. 25030081). The pooled donor HUVEC were cultured in endothelial cell growth medium 2 (PromoCell, Heidelberg, Germany, cat. C-22011) and the hMSC were cultured in mesenchymal stem cell growth medium 2 (PromoCell, cat. C-28009). For all experiments, HUVEC and hMSC were used at passages </=5, while the malignant cell lines were used at passages </=15. […]
# [1] = curve of first compound, second compound 0.1 µM
# [2] = curve of first compound, second compound 0.316 µM
# [3] = curve of first compound, second compound 1 µM
# [4] = curve of first compound, second compound 3.16 µM
# [5] = curve of first compound, second compound 10 µM
# [6] = second compound 0.1 µM, first compound 0.01 µM
# [7] = second compound 0.1 µM, first compound 0.0316 µM
# [8] = second compound 0.1 µM, first compound 0.1 µM
# [9] = second compound 0.1 µM, first compound 0.316 µM
# [10] = second compound 0.1 µM, first compound 1 µM
# [11] = second compound 0.1 µM, first compound 3.16 µM
# [12] = second compound 0.316 µM, first compound 0.01 µM
# [13] = second compound 0.316 µM, first compound 0.0316 µM
# [14] = second compound 0.316 µM, first compound 0.1 µM
# [15] = second compound 0.316 µM, first compound 0.316 µM
# [16] = second compound 0.316 µM, first compound 1 µM
# [17] = second compound 0.316 µM, first compound 3.16 µM
# [18] = second compound 1 µM, first compound 0.01 µM
# [19] = second compound 1 µM, first compound 0.0316 µM
# [20] = second compound 1 µM, first compound 0.1 µM
# [21] = second compound 1 µM, first compound 0.316 µM
# [22] = second compound 1 µM, first compound 1 µM
# [23] = second compound 1 µM, first compound 3.16 µM
# [24] = second compound 3.16 µM, first compound 0.01 µM
# [25] = second compound 3.16 µM, first compound 0.0316 µM
# [26] = second compound 3.16 µM, first compound 0.1 µM
# [27] = second compound 3.16 µM, first compound 0.316 µM
# [28] = second compound 3.16 µM, first compound 1 µM
# [29] = second compound 3.16 µM, first compound 3.16 µM
# [30] = second compound 10 µM, first compound 0.0316 µM
# [31] = second compound 10 µM, first compound 0.1 µM
# [32] = second compound 10 µM, first compound 0.316 µM
# [33] = second compound 10 µM, first compound 1 µM
# [34] = second compound 10 µM, first compound 3.16 µM
# 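Note: spheroids exposed to agents for 7 days before readout.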
smiles,measurement,setting,value
CNCc1ccccc1-c1csc(C(C)Nc2nc(C)nc3cc(OC)c(OC)cc23)c1 (stereo not given),"viability, T/C",compound 0.1 µM,101% [middle of 15 runs]
same,"viability, T/C",compound 0.316 µM,101% [middle of 15 runs]
same,"viability, T/C",compound 10 µM,0.23% [middle of 13 runs]
same,IC50,"compound alone, run of 08/26/2021",1.65 µM [middle of 5 runs]
same,IC50,"compound alone, run of 09/02/2021",1600 nM and 1720 nM and 1800 nM
COc1cc2nc(C)nc(NC(C)c3cc(N)cc(C(F)(F)F)c3)c2cc1OC1CCOC1 (stereo not given),IC50,"compound alone, run of 08/19/2021",> 10000 nM and 8350 nM and 7910 nM
Cn1nccc1Nc1nccc(-c2cc3c(s2)C(C)(C)N(CCN2CCOCC2)C3=O)n1,"viability, T/C",compound 0.0316 µM,99.9% and 99.7%
same,"viability, T/C",compound 0.1 µM,86.3% and 84.2%
same,"viability, T/C",compound 0.316 µM,59.1% and 65.2%
same,"viability, T/C",compound 1 µM,45.5% and 45.8%
same,"viability, T/C",compound 3.16 µM,35.7% and 37.9%
same,"viability, T/C",compound 10 µM,31.1% and 35.9%
same,IC50,curve of compound,665 nM and 799 nM
CCNC(=O)CC1N=C(c2ccc(Cl)cc2)c2cc(OC)ccc2-n2c(C)nnc21 (stereo not given),"viability, T/C",compound 0.0316 µM,112% [middle of 5 runs]
same,"viability, T/C",compound 0.1 µM,102% [middle of 5 runs]
same,"viability, T/C",compound 0.316 µM,78.4% [middle of 5 runs]
same,"viability, T/C",compound 1 µM,66.7% [middle of 5 runs]
same,"viability, T/C",compound 3.16 µM,59.7% [middle of 5 runs]
same,"viability, T/C",compound 10 µM,51.8% [middle of 5 runs]
same,IC50,curve of compound,> 10000 nM and 8280 nM
CC1COCCN1c1cc(-c2ccnn2C)c2ccnc(-c3ccn[nH]3)c2n1 (stereo not given) + COc1cc2nc(C)nc(NC(C)c3cc(N)cc(C(F)(F)F)c3)c2cc1OC1CCOC1,IC50,[1],2720 nM
same,IC50,[2],> 3160 nM
same,IC50,[3],> 3160 nM
same,IC50,[4],> 3160 nM
same,IC50,[5],< 10 nM
same,"viability, T/C",[6],99.4%
same,"viability, T/C",[7],91.6%
same,"viability, T/C",[8],71.5%
same,"viability, T/C",[9],62.5%
same,"viability, T/C",[10],49.1%
same,"viability, T/C",[11],50.9%
same,"viability, T/C",[12],101%
same,"viability, T/C",[13],94.3%
same,"viability, T/C",[14],70%
same,"viability, T/C",[15],63%
same,"viability, T/C",[16],52%
same,"viability, T/C",[17],53.9%
same,"viability, T/C",[18],111%
same,"viability, T/C",[19],88.4%
same,"viability, T/C",[20],73.5%
same,"viability, T/C",[21],60.6%
same,"viability, T/C",[22],56%
same,"viability, T/C",[23],58.4%
same,"viability, T/C",[24],97.3%
same,"viability, T/C",[25],89.2%
same,"viability, T/C",[26],71.3%
same,"viability, T/C",[27],61.9%
same,"viability, T/C",[28],59.2%
same,"viability, T/C",[29],52.9%
same,"viability, T/C","second compound 10 µM, first compound 0.01 µM",46%
same,"viability, T/C",[30],51.7%
same,"viability, T/C",[31],49.4%
same,"viability, T/C",[32],34.2%
same,"viability, T/C",[33],41.9%
same,"viability, T/C",[34],32.2%
CCNC(=O)CC1N=C(c2ccc(Cl)cc2)c2cc(OC)ccc2-n2c(C)nnc21 (stereo not given) + COc1cc2nc(C)nc(NC(C)c3cc(N)cc(C(F)(F)F)c3)c2cc1OC1CCOC1,IC50,[1],2350 nM
same,IC50,[2],3080 nM
same,IC50,[3],2490 nM
same,IC50,[4],952 nM
same,IC50,[5],< 31.6 nM
same,"viability, T/C",[7],99.4%
same,"viability, T/C",[8],91.5%
same,"viability, T/C",[9],75.2%
same,"viability, T/C",[10],53.8%
same,"viability, T/C",[11],50%
same,"viability, T/C","second compound 0.1 µM, first compound 10 µM",45.7%
same,"viability, T/C",[13],101%
same,"viability, T/C",[14],89.6%
same,"viability, T/C",[15],76.4%
same,"viability, T/C",[16],57%
same,"viability, T/C",[17],51.7%
same,"viability, T/C","second compound 0.316 µM, first compound 10 µM",44.8%
same,"viability, T/C",[19],95.9%
same,"viability, T/C",[20],94.4%
same,"viability, T/C",[21],72%
same,"viability, T/C",[22],55.9%
same,"viability, T/C",[23],49.1%
same,"viability, T/C","second compound 1 µM, first compound 10 µM",46.9%
same,"viability, T/C",[25],94.6%
same,"viability, T/C",[26],99.6%
same,"viability, T/C",[27],69.1%
same,"viability, T/C",[28],54.3%
same,"viability, T/C",[29],47.8%
same,"viability, T/C","second compound 3.16 µM, first compound 10 µM",44.6%
same,"viability, T/C",[30],34.8%
same,"viability, T/C",[31],22.4%
same,"viability, T/C",[32],16.5%
same,"viability, T/C",[33],14.1%
same,"viability, T/C",[34],20.1%
same,"viability, T/C","second compound 10 µM, first compound 10 µM",12.4%
CC(=O)OC12COC1CC(O)C1(C)C(=O)C(O)C3=C(C)C(OC(=O)C(O)C(NC(=O)OC(C)(C)C)c4ccccc4)CC(O)(C(OC(=O)c4ccccc4)C21)C3(C)C (stereo not given) + C=CC(=O)N1CCN(c2nc(OCC3CCCN3C)nc3c2CCN(c2cccc4cccc(C)c24)C3)CC1CC#N,IC50,"curve of first compound, second compound 0.0316 µM",> 3160 nM
same,IC50,[1],> 3160 nM
same,IC50,[2],> 3160 nM
same,IC50,[3],> 3160 nM
same,IC50,[4],> 3160 nM
same,"viability, T/C","second compound 0.0316 µM, first compound 0.01 µM",86.9%
same,"viability, T/C","second compound 0.0316 µM, first compound 0.0316 µM",95.8%
same,"viability, T/C","second compound 0.0316 µM, first compound 0.1 µM",102%
same,"viability, T/C","second compound 0.0316 µM, first compound 0.316 µM",101%
same,"viability, T/C","second compound 0.0316 µM, first compound 1 µM",110%
same,"viability, T/C","second compound 0.0316 µM, first compound 3.16 µM",109%
same,"viability, T/C",[6],87.5%
same,"viability, T/C",[7],94.9%
same,"viability, T/C",[8],97%
same,"viability, T/C",[9],106%
same,"viability, T/C",[10],116%
same,"viability, T/C",[11],115%
same,"viability, T/C",[12],85.5%
same,"viability, T/C",[13],97.5%
same,"viability, T/C",[14],92.8%
same,"viability, T/C",[15],101%
same,"viability, T/C",[16],115%
same,"viability, T/C",[17],103%
same,"viability, T/C",[18],82.6%
same,"viability, T/C",[19],86.9%
same,"viability, T/C",[20],91.8%
same,"viability, T/C",[21],96.7%
same,"viability, T/C",[22],99.2%
same,"viability, T/C",[23],96.7%
same,"viability, T/C",[24],87.2%
same,"viability, T/C",[25],100%
same,"viability, T/C",[26],99.6%
same,"viability, T/C",[27],105%
same,"viability, T/C",[28],111%
same,"viability, T/C",[29],115%
